Measurements: patent US9434670B2, “Family of aryl, heteroaryl, O-aryl and O-heteroaryl carbasugars” (TFCHEM, priority 2011, dated 2016)
≈ marks a conversion by molar mass, not a printed value.

Tests used:
female CD1 mice = assay: Facilitatory effect on urinary glucose excretion after oral administration; type: in vivo; conditions: 3 mg/kg po
Experimental: As experimental animal, female CD1 mice (CDM or Charles River) were used. A test compound was dissolved in the vehicle (5% N-methyl pyrrolidone, 20% PEG 400, 75% 20 mM Na4P2O7 buffer, v/v/v) at the concentration of 1 mg/mL After the body weights of the mice were measured and the mice randomized, the test article was orally administered at the dose of 1 mg/kg, 3 mg/kg and 10 mg/kg. For control, just the vehicle (5% N-methyl pyrrolidone, 20% PEG 400, 75% 20 mM Na4P2O7 buffer, v/v/v) was orally administered. The oral administration was performed with gastric tube for mice and a 1 mL syringe. The minimum count in one group was 3 but could reach 12 for some groups. Collection of the urine was performed manually by gentling massaging the abdomen in order to collect urine (3 μL) via a calibrated pipette. Urine was collected at 1, 2, 4, 6, 8 and then 16, 18, 20, 22, 24, 26 and 28 hrs. The urine glucose concentration was measured using a WAKO glucose kit as follows: 3 μL of urine was deposited into a 96-well micro plate for spectrometric readout. The urine aliquot was diluted with 350 μL of the WAKO working solution. […] The absorbance of the 96-well plates were then read at 505 nm using a BioTek SynergyMX plate fluorometer/absorbance photometer and the glucose concentration was calculated. […]

[1] = system: 18 hrs fasted female CD1 mice; assay: Decrease of blood glucose excursions following oral glucose challenge (oral glucose tolerance test); type: in vivo
Experimental: As experimental animal, 18 hrs fasted female CD1 mice (CDM or Charles River) were used. A test compound was dissolved in the vehicle (5% N-methyl pyrrolidone, 20% PEG 400, 75% 20 mM Na4P2O7 buffer, v/v/v) at the concentration of 1 mg/mL. After the body weights of the mice were measured and the mice randomized, the test article was orally administered at the dose of 1 mg/kg, 3 mg/kg and 10 mg/kg. For control, just the vehicle (5% N-methyl pyrrolidone, 20% PEG 400, 75% 20 mM Na4P2O7 buffer, v/v/v) was orally administered. 15 min after this oral administration, a 20% glucose solution in deionised water was orally administered to all mice. The oral administration was performed with gastric tube for mice and a 1 mL syringe. The minimum count in one group was 3 but could reach 5 for some groups. Collection of the blood was performed via the saphenous vein. Blood was collected at 5, 10, 30, 45, 60 and 120 min post glucose challenge. One experiment consisted in administrating the test article 18 hrs prior to a glucose challenge i.e. 18 hrs post po of test article. The blood glucose concentration was measured using Johnson and Johnson's OneTouch® Ultra Blood Glucose Monitoring System. The glucose concentrations for controls and test articles at the different time points were averaged using Excel 2007 and plotted using GraphPad Prism 5.

[2] = system: β-glucosidase from Almonds; assay: Enzymatic stability against glycosidase, HPLC analysis after incubation with β-glucosidase; type: in vitro ADME; conditions: for degradation in the presence of β-glucosidase (in words): 4 h at 37° C., phosphate buffer pH 7, 10 U β-glucosidase
Excerpt: The enzymatic stability assay has been performed with compound 26 according to the invention and compound A used as a reference compound to control the efficacy of the β-glucosidase. The sergliflozin-A stability has also been evaluated in order to compare the improvement of metabolic stability obtained through the replacement of the intracyclic oxygen atom of the glucose moiety by a CF2 moiety.
All the compounds have been treated with β-glucosidase. The stability of compound 26 and Sergliflozin-A has been assessed by HPLC analysis after incubation with β-glucosidase.
A Gilson HPLC system was used, equipped with a manual injection system (V=20 μL), a Diode Array Detector (DAD172) set at a wavelength of 230 nm and a 150 mm×4.6 mm, 5 μm HICHROM Kromasil 100-5C18 reverse phase column. A linear HPLC binary gradient was used as follows: solvent A was water and solvent B was acetonitrile. Following the injection of 20 μL of a sample, solvent B was held at 20% for 3 min, increased from 20% to 90% in 17 min, held at 90% for 4 min; finally, solvent B was decreased back to 20% over 5.5 min and was held at 20% for 3.5 min.
The procedure has been adapted from J. Agric. Food Chem. 2005, 53, 4918-4924.
100 μL of a solution of compound 26 at 4.5·10^−4 mol·L^−1 in acetonitrile was added to a solution containing 800 μL of phosphate buffer (73173 Fluka, pH 7) in the presence of β-glucosidase from Almonds (10 U, 100 μL of a 5.6 mg·mL^−1 solution in phosphate buffer, (G4511sigma 18.7 U per mg)) and was kept 4 h at 37° C.
100 μL of a solution of sergliflozin-A at 4.5·10^−4 moL·L^−1 in acetonitrile has been treated in the presence of β-glucosidase following the same process.
In parallel, 100 μL of a solution of p-nitrophenyl-β-glucoside (compound A) at 4.5·10^−4 mol·L^−1 in phosphate buffer (73173 Fluka, pH 7) was added to a solution containing 700 μL of phosphate buffer and 100 μL of acetonitrile, with the presence of β-glucosidase from Almonds (10 U, 100 μL of a 5.6 mg·mL^−1 solution in phosphate buffer, (G4511 sigma 18.7 U per mg)) and was kept 4 h at 37° C. During the process in the presence of β-glucosidase, a yellow coloration was observed that underlines the decomposition of compound. A.
HPLC of compound 21 (FIG. 7), compound 26 (FIG. 8) and Sergliflozin-A (FIG. 10) have been performed to follow up in the experiments the formation of compound 21 (the aglycone part) implying a degradation of the starting material.
In order to evaluate the percentage of degradation, a calibration has been done on compound 21 giving the following results:
Data have been plotted (Area % versus concentration) and the linear regression obtained was characterized by the equation y=53629x and a R^2=0.994. […]

Mushroom Tyrosinase [3] = assay: Inhibition of Tyrosine-Tyrosinase reaction, absorbance at 477 nm (assay e); type: biochemical; conditions: test compound n = 5·10^−5 mol; Solution A 1 mL, Solution B 0.5 mL, buffer 0.5 mL; witness solution 0.4354
Experimental: Inhibition of tyrosinase, i.e. inhibition of the hydroxylation of Tyrosine into DOPA, was measured by visible spectrophotometry, and more specifically by measuring the absorbance at 477 nm, indicative of the amount of melanine produced in vitro from the Tyrosine substrate by Tyrosinase. In order to make sure that the measured absorbance is proportional to the enzymatic activity in the range of studied concentrations, five standard solutions were prepared as follows. Absorbance has been measured on a Perkin Elmer UV/Vis Spectrometer Lambda 12. Solution A (1,000 U/mL mother solution of Tyrosinase) was prepared by dissolving 40 mg of 1,250 U/mg Mushroom Tyrosinase in 1 mL 100 mM pH6.5 bis Tris buffer and QS to 50 mL with milliQ water. Bis Tris buffer (100 mM pH6.5 bis Tris buffer) was prepared by dissolving 2.09 g of Bis Tris in milliQ water and QS to 100 mL. Solution B (mother solution of Tyrosine) was prepared by dissolving 100 mg of Tyrosine in milliQ water and QS to 100 mL. The standard solutions were incubated for 2 h at 37° C., then quickly cooled to 4° C. […] The following test solutions were prepared and their absorbance was measured at 477 nm: […]

Mushroom Tyrosinase [4] = assay: Tyrosinase inhibition, concentration series and IC50 (assay f); type: biochemical; conditions: for IC50: Concentration Tyrosinase 100 U/mL, from linear regression of % activity versus concentration; for Absorbance (477 nm): 1 h 30 at 37° C.; for % activity: witness solution = 100%
Experimental: The protocol performed is the same as in assay e. Solution A (1,000 U/mL mother solution of Tyrosinase) was prepared by dissolving all of 50 kU Mushroom Tyrosinase in 1 mL 100 mM pH6.5 bis Tris buffer and QS to 50 mL with milliQ water. Bis Tris buffer (100 mM pH6.5 bis Tris buffer) was prepared by dissolving 2.09 g of Bis Tris in milliQ water and QS to 100 mL. pH was adjusted at 6.5 using hydrochloric acid. Solution B (mother solution of Tyrosine) was prepared by dissolving 20 mg of Tyrosine in milliQ water and QS to 20 mL. Stock solution of compound 31 was prepared as follow: 10 mg of compound 31 was dissolved in Bis Tris buffer up to 1 ml. Stock solution of β-arbutin was prepared as follow: 20 mg of compound β-arbutin was dissolved in Bis Tris buffer up to 1 ml. The solutions were incubated for 1 h 30 at 37° C., then quickly cooled to 4° C. 100 μL of each solution were deposited on 96-well plate. The absorbance of the different solutions were measured at 477 nm (Molecular Devices: Spectra Max 340PC). The different solutions were prepared as described in the different tables below and their absorbances were reported. The absorbance of witness solution (without inhibitor) was set at 100% of enzymatic activity, allowing us to determine the percentage of enzymatic activity of the different solutions. Data have been plotted (% of activity versus concentration of inhibitors) and the linear regression of the curve was used to calculate the […] of both compounds.

[5] = system: β-glucosidase from Almonds; conditions: as referred in several publications; cited from earlier work
[6] = Inhibitor Concentration 0.17 mg/mL
[7] = Inhibitor Concentration 0.33 mg/mL
[8] = Inhibitor Concentration 0.50 mg/mL
[9] = Inhibitor Concentration 0.67 mg/mL
[10] = Inhibitor Concentration 0.83 mg/mL
[11] = Inhibitor Concentration 1.33 mg/mL
[12] = Inhibitor Concentration 2.00 mg/mL
[13] = Inhibitor Concentration 2.67 mg/mL
[14] = Inhibitor Concentration 3.33 mg/mL

CCOc1ccc(Cc2cc([C@H]3[C@H](O)[C@@H](O)[C@H](O)[C@@H](CO)C3(F)F)ccc2Cl)cc1 [Compound 16]
duration of glucosuria (female CD1 mice; compared to Dapagliflozin (FIG. 5)): > 24 h
blood glucose excursions following glucose challenge ([1]; 3 mg/kg po administered 18 hrs prior to glucose challenge (FIG. 4)): still reduced blood glucose excursions
blood glucose levels following glucose challenge ([1]; 1, 3 and 10 mg/kg po, normal mice, glucose 15 min after dosing (FIG. 3)): reduced blood glucose levels in a dose-dependent manner

COc1ccc(Cc2ccccc2O[C@H]2[C@H](O)[C@@H](O)[C@H](O)[C@@H](CO)C2(F)F)cc1 [Compound 26]
degradation in the presence of β-glucosidase (in words) [2]: no degradation occurs

OC[C@@H]1[C@@H](O)[C@H](O)[C@@H](O)[C@H](Oc2ccc(O)cc2)C1(F)F [Compound 31]
Absorbance (477 nm) (Mushroom Tyrosinase [3]): 0.1292
IC50 (Mushroom Tyrosinase [4]): 0.328 mg/mL (≈ 1070 µM)
Absorbance (477 nm) (Mushroom Tyrosinase [4]; [6]): 0.5855
% activity (Mushroom Tyrosinase [4]; [6]): 81.55%
Absorbance (477 nm) (Mushroom Tyrosinase [4]; [7]): 0.3535
% activity (Mushroom Tyrosinase [4]; [7]): 49.23%
Absorbance (477 nm) (Mushroom Tyrosinase [4]; [8]): 0.255
% activity (Mushroom Tyrosinase [4]; [8]): 35.52%
Absorbance (477 nm) (Mushroom Tyrosinase [4]; [9]): 0.220
% activity (Mushroom Tyrosinase [4]; [9]): 30.57%
Absorbance (477 nm) (Mushroom Tyrosinase [4]; [10]): 0.200
% activity (Mushroom Tyrosinase [4]; [10]): 27.86%

Oc1ccc(O)cc1 [Hydroquinone]
Absorbance (477 nm) (Mushroom Tyrosinase [3]): 0.1528

COc1ccc(Cc2ccccc2O[C@@H]2O[C@H](CO)[C@@H](O)[C@H](O)[C@H]2O)cc1 [Sergliflozin-A]
degradation in the presence of β-glucosidase (in words) [2]: degradation occurs
degradation ([2]; 4 h of incubation at 37° C. with β-glucosidase, pH 7, from HPLC area of aglycone 21): 80%
cleavage by β-glucosidase [5]: undergo cleavage

CCOc1ccc(Cc2cc([C@H]3[C@H](O)[C@@H](O)[C@H](O)[C@@H](CO)[C@@H]3O)ccc2Cl)cc1 [compound 9 of WO 2009/1076550]
glucosuria detected in the same time period (up to 24 hrs) (female CD1 mice; 16 to 28 hours after administration (FIG. 6)): none could be detected

O=[N+]([O-])c1ccc(O[C@@H]2O[C@H](CO)[C@@H](O)[C@H](O)[C@H]2O)cc1 [compound A, p-nitrophenyl-β-glucoside]
degradation in the presence of β-glucosidase (in words) [2]: decomposition

OC[C@H]1O[C@@H](Oc2ccc(O)cc2)[C@H](O)[C@@H](O)[C@@H]1O [β-Arbutin]
IC50 (Mushroom Tyrosinase [4]): 1.1 mg/mL (≈ 4040 µM)
Absorbance (477 nm) (Mushroom Tyrosinase [4]; [9]): 0.5010
% activity (Mushroom Tyrosinase [4]; [9]): 66.62%
Absorbance (477 nm) (Mushroom Tyrosinase [4]; [11]): 0.3040
% activity (Mushroom Tyrosinase [4]; [11]): 40.43%
Absorbance (477 nm) (Mushroom Tyrosinase [4]; [12]): 0.2380
% activity (Mushroom Tyrosinase [4]; [12]): 31.65%
Absorbance (477 nm) (Mushroom Tyrosinase [4]; [13]): 0.2035
% activity (Mushroom Tyrosinase [4]; [13]): 27.06%
Absorbance (477 nm) (Mushroom Tyrosinase [4]; [14]): 0.1970
% activity (Mushroom Tyrosinase [4]; [14]): 26.20%
